# Reference: ChEMBL document CHEMBL1201862, “PubChem BioAssay data set” (2004)
# Calls of active or inactive are those of the source.
# How the values were obtained:
# [1] = P. falciparum late gametocyte killing, dose response, luminescence (AID 1117278); type: functional, cell-based;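 also: gametocytes exposed to compound for 24 hours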
# [2] = Jurkat T cell cytotoxicity, dose response, cytotoxicity control for P. falciparum gametocyte viability project, luminescence (AID 1117277); type: functional, cell-based;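 also: potency reflects loss of cellular ATP meaning fewer viable cells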
# [3] = inhibitors of intracellular T. cruzi replication, confirmation, NIH3T3 host cells, beta-gal luminescence (AID 2044); type: functional, cell-based;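 also: intracellular parasites grown in NIH/3T3 mouse fibroblasts as host cells; luminescent beta-galactosidase reporter signal from transgenic T. cruzi replicating inside host cells; inhibitors lower the luminescence signal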
# [4] = cytotoxicity toward NIH3T3 fibroblasts, dose response, counter-screen, cell-based, ATP luminescence, mouse fibroblasts (AID 2010); type: functional;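 also: cells exposed to compound for about 90 hours before reading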
# [5] = cells
# [6] = target: T1, Heat shock factor protein 1 (Mus musculus, UniProt P38532); experiment: HSF1 potentiators in luciferase reporter cells, confirmation, cell-based, NIH3T3, luminescence, dose retest (AID 435004); type: functional;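 also: stress induced by proteasome inhibitor MG132 added 30 min after compound; luciferase reporter driven by HSF1 response element in NIH3T3 cells; actives raise luminescence as potentiators of the MG132 stress response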
# T1 sequence (P38532 whole entry): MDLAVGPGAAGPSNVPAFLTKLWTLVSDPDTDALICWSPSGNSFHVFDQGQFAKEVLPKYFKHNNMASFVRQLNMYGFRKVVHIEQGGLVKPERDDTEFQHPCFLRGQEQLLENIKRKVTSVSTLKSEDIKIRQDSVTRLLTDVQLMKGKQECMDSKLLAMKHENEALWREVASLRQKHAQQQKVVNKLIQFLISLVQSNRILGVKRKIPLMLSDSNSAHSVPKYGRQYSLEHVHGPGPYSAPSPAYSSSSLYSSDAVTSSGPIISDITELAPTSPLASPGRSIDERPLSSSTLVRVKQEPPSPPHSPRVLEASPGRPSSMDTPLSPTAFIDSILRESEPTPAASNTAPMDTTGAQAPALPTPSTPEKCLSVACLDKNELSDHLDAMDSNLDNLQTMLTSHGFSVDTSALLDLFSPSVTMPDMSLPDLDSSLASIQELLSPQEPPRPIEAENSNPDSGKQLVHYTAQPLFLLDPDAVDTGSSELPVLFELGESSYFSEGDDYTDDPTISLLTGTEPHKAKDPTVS
# [7] = target: T2, Tyrosine-protein phosphatase non-receptor type 7 (Homo sapiens, UniProt P35236); experiment: inhibitors of human HePTP phosphatase, […], biochemical, absorbance, leukemia target (AID 521); type: functional
# T2 sequence (P35236 whole entry): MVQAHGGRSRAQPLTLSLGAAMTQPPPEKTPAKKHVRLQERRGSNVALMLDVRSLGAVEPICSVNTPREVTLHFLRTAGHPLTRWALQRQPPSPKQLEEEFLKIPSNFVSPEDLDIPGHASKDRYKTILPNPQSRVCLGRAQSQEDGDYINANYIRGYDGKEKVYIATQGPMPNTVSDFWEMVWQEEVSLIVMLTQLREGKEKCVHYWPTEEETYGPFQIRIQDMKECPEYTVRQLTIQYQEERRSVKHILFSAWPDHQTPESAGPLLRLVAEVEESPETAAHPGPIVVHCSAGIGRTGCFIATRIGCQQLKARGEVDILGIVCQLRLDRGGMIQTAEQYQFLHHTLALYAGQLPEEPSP
# [8] = target: Mitogen-activated protein kinase 10 (Homo sapiens, UniProt P53779); experiment: Dose response biochemical screening assay for inhibitors of c-Jun N-Terminal Kinase 3 (JNK3). [Related pubchem assays: 746 ]
# [9] = THP-1 cell cytotoxicity, dose response, cytotoxicity control for Vif-APOBEC3G degradation inhibitor project, THP-1 cells (AID 1117359); type: functional; conditions: Human immunodeficiency virus 1, THP-1
# [10] = target: Large T antigen (Simian virus 40, UniProt P03070); type: functional, Betapolyomavirus macacae;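 also: Confirmatory-stage PubChem screen for compounds that inhibit SV40 T antigen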
# [11] = target: T3, Protein RecA (Mycobacterium tuberculosis, UniProt P9WHJ3); experiment: Fluorescence Cell-Free Homogeneous Dose Retest to Identify Inhibitors of RecA-Intein Splicing Activity. [Related pubchem assays (depositor defined):AID2097, AID2223, AID489010, AID492950]; type: functional
# T3 sequence (P9WHJ3 whole entry): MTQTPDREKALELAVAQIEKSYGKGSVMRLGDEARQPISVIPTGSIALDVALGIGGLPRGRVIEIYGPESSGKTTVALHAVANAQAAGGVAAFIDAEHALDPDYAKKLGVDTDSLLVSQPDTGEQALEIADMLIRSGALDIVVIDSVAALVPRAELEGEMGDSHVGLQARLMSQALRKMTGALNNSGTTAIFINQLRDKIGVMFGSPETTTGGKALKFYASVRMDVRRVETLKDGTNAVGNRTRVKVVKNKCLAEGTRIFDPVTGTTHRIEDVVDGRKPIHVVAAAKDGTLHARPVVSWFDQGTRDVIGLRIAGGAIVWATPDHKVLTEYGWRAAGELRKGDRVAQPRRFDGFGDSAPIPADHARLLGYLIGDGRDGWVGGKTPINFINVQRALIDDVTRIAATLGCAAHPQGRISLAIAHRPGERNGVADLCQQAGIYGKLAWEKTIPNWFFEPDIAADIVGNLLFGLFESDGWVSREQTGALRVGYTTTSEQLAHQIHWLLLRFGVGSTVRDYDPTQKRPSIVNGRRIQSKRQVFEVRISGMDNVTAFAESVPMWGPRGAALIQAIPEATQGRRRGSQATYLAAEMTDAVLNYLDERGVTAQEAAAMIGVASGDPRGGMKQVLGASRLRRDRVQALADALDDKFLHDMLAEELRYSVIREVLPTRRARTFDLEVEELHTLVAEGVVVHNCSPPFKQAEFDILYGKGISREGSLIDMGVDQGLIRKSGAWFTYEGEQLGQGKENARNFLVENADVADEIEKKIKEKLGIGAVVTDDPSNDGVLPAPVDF
# [12] = target: T4, Replicative DNA helicase DnaB (Mycobacterium tuberculosis, UniProt P9WMR3); experiment: DnaB intein splicing inhibitors, dose response, biochemical, cell-free fluorescence (AID 449749); type: functional
# T4 sequence (P9WMR3 whole entry): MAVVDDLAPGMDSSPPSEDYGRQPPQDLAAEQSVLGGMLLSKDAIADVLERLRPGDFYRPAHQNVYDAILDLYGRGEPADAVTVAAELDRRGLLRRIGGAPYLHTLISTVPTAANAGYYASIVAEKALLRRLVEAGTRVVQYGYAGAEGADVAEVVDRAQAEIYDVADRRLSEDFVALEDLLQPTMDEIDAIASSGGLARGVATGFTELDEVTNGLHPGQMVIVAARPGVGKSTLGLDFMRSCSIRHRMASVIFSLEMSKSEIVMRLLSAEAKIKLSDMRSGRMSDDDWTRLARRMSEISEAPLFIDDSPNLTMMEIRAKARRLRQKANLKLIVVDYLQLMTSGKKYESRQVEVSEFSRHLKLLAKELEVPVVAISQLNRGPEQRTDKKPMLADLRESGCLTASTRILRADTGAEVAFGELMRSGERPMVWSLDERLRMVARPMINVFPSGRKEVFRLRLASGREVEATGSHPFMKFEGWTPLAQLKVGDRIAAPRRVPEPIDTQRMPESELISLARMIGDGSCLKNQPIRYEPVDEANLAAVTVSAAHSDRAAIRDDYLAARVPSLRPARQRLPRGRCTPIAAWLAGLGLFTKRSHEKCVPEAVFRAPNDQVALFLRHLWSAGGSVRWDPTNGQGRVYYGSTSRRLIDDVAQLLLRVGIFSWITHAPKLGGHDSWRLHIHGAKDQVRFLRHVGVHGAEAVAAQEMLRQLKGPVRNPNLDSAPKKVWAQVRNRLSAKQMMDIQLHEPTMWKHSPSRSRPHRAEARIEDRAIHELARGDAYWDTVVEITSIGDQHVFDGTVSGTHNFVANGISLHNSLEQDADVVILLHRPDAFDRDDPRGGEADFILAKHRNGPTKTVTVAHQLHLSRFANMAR
# [13] = C. albicans growth with fluconazole, confirmation, fluorescence, retest (AID 2467); type: functional, cell-based
# [14] = target: T5, Zinc finger protein mex-5 (Caenorhabditis elegans, UniProt Q9XUB2); experiment: MEX-5/TCR-2 RNA interaction inhibitors, dose response, biochemical, C. elegans, fluorescence polarization (AID 1960)
# T5 sequence (Q9XUB2 whole entry): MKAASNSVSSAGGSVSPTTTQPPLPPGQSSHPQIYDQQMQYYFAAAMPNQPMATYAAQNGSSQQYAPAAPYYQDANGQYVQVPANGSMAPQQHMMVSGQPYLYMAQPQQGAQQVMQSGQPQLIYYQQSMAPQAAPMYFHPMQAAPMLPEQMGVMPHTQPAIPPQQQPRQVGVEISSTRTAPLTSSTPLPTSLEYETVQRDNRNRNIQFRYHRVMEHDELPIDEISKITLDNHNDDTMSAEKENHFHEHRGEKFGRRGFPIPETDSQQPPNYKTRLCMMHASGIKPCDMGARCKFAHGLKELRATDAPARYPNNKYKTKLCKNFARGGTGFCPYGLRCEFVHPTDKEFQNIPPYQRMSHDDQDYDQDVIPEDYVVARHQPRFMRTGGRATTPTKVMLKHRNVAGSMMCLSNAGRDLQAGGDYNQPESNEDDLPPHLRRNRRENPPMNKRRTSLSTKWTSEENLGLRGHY
# [15] = target: T6, Corticotropin-releasing factor receptor 2/Corticotropin-releasing factor-binding protein (Homo sapiens, UniProt P24387+Q13324); experiment: activators of CRF receptor 2 with binding protein – uHTS hits, confirmation (AID 602473); type: functional; conditions: read-out: EC50_Mean
# T6 sequence (Q13324 whole entry): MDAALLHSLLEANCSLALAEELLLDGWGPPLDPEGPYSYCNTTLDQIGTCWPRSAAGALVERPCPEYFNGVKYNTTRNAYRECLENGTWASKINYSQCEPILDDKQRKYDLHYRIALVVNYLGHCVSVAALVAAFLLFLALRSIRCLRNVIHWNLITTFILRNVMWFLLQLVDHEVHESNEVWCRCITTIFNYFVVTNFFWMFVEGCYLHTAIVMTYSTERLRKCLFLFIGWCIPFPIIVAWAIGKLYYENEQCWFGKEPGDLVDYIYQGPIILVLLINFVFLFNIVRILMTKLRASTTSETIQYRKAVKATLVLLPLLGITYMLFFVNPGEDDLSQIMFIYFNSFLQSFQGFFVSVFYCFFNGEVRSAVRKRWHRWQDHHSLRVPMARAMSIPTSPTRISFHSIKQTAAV
# T6 sequence (P24387 whole entry): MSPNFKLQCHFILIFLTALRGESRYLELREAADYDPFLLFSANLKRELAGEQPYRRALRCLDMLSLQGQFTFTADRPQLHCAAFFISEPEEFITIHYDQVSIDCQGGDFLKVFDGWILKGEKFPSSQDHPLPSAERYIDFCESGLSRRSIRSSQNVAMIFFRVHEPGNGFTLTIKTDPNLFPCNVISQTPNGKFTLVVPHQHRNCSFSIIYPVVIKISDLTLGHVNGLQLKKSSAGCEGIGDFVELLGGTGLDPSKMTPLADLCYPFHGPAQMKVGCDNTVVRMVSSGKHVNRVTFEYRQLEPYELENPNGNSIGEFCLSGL
# [16] = target: T7, Endoribonuclease toxin MazF (Escherichia coli K-12, UniProt P0AE70); experiment: fluorescent RNA oligo signal without MazF, dose response, counter-screen for MazEF activator project, biochemical, fluorescence, single-stranded RNase substrate (AID 588502); type: functional
# T7 sequence (P0AE70 whole entry): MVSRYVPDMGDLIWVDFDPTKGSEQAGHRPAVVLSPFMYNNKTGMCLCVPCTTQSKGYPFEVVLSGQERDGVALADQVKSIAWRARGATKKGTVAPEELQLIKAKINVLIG
# [17] = target: T7, Endoribonuclease toxin MazF; experiment: MazF toxin RNase activators, dose response, biochemical, fluorescence, single-stranded RNA substrate, uHTS hits (AID 588481); type: functional
# [18] = target: T8, RNA-binding protein pos-1 (Caenorhabditis elegans, UniProt G5EF15); experiment: inhibitors of POS-1/mex-3 RNA binding, dose response, biochemical, fluorescence polarization (AID 1964);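 also: purified POS-1 fused to maltose binding protein made in E. coli; potency of compounds blocking POS-1 binding to fluorescent RNA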
# T8 sequence (G5EF15 whole entry): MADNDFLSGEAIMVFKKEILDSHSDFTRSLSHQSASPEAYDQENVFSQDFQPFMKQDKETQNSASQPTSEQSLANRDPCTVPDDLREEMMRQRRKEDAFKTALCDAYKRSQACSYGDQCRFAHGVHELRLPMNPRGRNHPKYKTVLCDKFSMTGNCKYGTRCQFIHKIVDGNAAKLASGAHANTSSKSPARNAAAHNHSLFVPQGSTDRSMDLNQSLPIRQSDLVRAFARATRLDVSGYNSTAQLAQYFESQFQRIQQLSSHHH
# [19] = NIH-3T3 fibroblast cytotoxicity, dose response, cytotoxicity control, cell-based, fluorescence, Alamar Blue, secondary assay (AID 2327); type: functional;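 also: NIH-3T3 mouse fibroblasts cultured with fluconazole at 8 µg/mL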
# Sequence of Mitogen-activated protein kinase 10 (P53779 whole entry): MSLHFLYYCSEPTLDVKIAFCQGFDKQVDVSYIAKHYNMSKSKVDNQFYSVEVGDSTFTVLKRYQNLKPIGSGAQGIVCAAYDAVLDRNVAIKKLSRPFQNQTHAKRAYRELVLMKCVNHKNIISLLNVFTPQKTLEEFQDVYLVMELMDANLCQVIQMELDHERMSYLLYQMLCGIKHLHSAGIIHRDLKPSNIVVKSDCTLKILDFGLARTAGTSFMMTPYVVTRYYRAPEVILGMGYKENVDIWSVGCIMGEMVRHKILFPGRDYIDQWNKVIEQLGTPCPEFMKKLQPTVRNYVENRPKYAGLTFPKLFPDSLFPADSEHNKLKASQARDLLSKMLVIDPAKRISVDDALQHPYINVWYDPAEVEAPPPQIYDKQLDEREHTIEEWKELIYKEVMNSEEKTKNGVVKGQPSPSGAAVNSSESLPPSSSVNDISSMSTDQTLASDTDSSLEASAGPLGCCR
# Sequence of Large T antigen (P03070 whole entry): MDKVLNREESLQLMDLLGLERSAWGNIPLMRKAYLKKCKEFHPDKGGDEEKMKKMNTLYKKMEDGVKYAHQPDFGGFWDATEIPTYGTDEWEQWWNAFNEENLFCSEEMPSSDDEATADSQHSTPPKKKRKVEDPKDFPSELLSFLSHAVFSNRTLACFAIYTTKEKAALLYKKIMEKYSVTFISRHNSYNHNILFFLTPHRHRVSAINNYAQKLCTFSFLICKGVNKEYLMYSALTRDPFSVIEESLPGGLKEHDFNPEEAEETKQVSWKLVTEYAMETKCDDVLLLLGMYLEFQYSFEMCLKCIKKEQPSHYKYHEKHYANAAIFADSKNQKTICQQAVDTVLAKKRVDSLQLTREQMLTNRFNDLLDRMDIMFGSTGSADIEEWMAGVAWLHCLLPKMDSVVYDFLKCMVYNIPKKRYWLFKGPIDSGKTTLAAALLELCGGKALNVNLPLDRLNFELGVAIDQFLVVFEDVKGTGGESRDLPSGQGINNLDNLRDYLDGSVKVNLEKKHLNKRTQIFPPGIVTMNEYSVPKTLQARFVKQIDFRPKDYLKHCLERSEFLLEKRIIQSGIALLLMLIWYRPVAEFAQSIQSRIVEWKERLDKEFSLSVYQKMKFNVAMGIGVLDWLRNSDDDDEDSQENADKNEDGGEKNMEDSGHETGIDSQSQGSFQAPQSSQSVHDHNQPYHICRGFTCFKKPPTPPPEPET
compound,measurement,setting,value
N#Cc1c(N)nc2c(c1-c1ccncc1)CCCCC2,IC50,[1],> 109 µM (inactive)
same,IC50,[2],> 83.4 µM (inactive)
Cc1ccc(-c2csc(N=C(N)N)n2)c(C)c1,EC50,[3],< 0.1 µM (active)
same,EC50,[4],> 60 µM (not active)
same,EC50,[5],0.167 µM (active)
O=C(NCc1cccc(F)c1)c1noc2c1CCCC2,EC50,[6],> 260 µM (inactive)
same,IC50,[7],> 100 µM (not active)
CCOC(=O)c1c(-c2ccc(OC)cc2)n[nH]c1N,IC50,[8],63.1 µM (not active)
CNC(=O)C1=NCCCc2cc(OC)c(OC)cc21,IC50,[7],> 100 µM (not active)
COc1ccccc1CNC(=O)Nc1cccs1,IC50,[7],> 100 µM (not active)
N#Cc1sc2nc3c(c(-c4ccco4)c2c1N)CCCC3,IC50,[8],68.6 µM (not active)
COc1ccc(Nc2ccc(OC)cc2)cc1,CC50,[9],21 µM (active)
same,IC50,[10],26.2 µM (active)
same,EC50,[11],> 380 µM (inactive)
same,AC50,[12],121 µM (active)
CC(=O)NC1C(=O)N=C(SCc2ccccc2)NC1=O (centres undefined),IC50,[1],> 109 µM (inactive)
same,IC50,[2],> 83.3 µM (inactive)
CCCc1ccc(OCCNC(=O)CC)cc1,IC50,[1],> 109 µM (inactive)
same,IC50,[2],> 83.4 µM (inactive)
CCN(CC)c1ccc(/N=C/c2ccc(N(CC)CC)cc2O)cc1,EC50,[13],> 38 µM (not active)
same,EC50,[3],3.25 µM (active)
same,EC50,[4],> 60 µM (not active)
same,EC50,[14],> 300 µM (not active)
same,EC50,[15],4.26 µM (active)
same,CC50,[9],> 40 µM (active)
same,EC50,[16],> 99 µM (inactive)
same,EC50,[17],> 99 µM (inactive)
same,EC50,[18],> 300 µM (not active)
same,EC50,[19],147 µM (inconclusive)
